The melting point is the temperature, or range, at which the solid turns liquid. In turn, `COc1ccc(-n2c(=S)[nH]c(=O)c3cccnc32)cc1` showed a melting point of 261 to 263 °C. As to `COC(=O)c1ccccc1S(N)(=O)=O`, the melting point lay within 125 to 127 °C. Turning to `CCCCCCCCCCCCc1ccccc1S(=O)(=O)O`, the melting point came to 10 °C. The figure for `NNC(=S)NCCN1CCOCC1` is 166 °C. On to `CCNc1nc(NC(C)(C)C)nc(OC)n1`, for which the melting point was found to be 124 °C. In the case of `Cc1cccc2ccccc12`, the melting point turned out to be 34 °C. The figure for `CC(=O)c1c2c(c(C(C)=O)c3c1CCCN3)NCCC2` is 143 °C. Take `CC(C(=O)O)c1ccc(N2CC=CC2)c(Cl)c1` (configuration not stated): the melting point came to 99 °C.

In turn, `CC(=O)c1cnccn1` returned a melting point of 77 °C.

`CC(=NCc1ccccc1)c1c(O)c2ccccc2n(-c2ccccc2)c1=O` returned a melting point of 164 °C. The value for `CCCCCCCCCCC#CC#CCCCCCCC(=O)O` was 51 to 52 °C; that for `CCOC(=O)C(C(C)=O)C(C)C(C(C)=O)C(=O)OC1CC(C)CCC1C(C)C` (configuration not stated) was 155 °C. The compound `Cc1ccc(NC(=O)CC2C(=O)C3(C)CCC2C3(C)C)cc1` (configuration not stated) gave a melting point of 158 °C.

In the case of `Cc1c2c(c(C)c3c1C(=O)C3)C(=O)C2`, the melting point lay within 237 to 238 °C. `COC(=O)c1ccc(C(=O)O)nc1` gave a melting point of 187 to 190 °C. In the case of `CCOC(=O)C(CCc1ccccc1)NC(C)C(=O)N1Cc2ccccc2CC1C(=O)O` (configuration not stated), the melting point is 125 °C. As to `CC1CC(C)(C)CC(OOC(C)(C)C)(OOC(C)(C)C)C1` (configuration not stated), the melting point is -20 °C.

`Cn1c(=O)c(C2=NNC(=O)C2)c(O)c2ccccc21` gave a melting point of 287 °C. For the compound `Oc1c(Cl)c(Cl)c(O)c(Cl)c1Cl`, the melting point was 239 °C. Regarding `CC(=O)Oc1ccc(OC(C)=O)c(-c2ccccc2)c1`, the melting point is 68 °C. The value for `O=C(O)CN=C(S)C(=S)NCC(=O)O` was 220 °C; that for `CCc1c(Br)c(Br)c(Br)c(Br)c1Br` was 138 °C. As for `CC(C)CCCC(C)C1CCC2C3CCC4CCCCC4(C)C3CCC12C` (configuration not stated), the melting point fell in the range of 79 to 80 °C. Compound `O=C(O)c1cc(-c2ccccc2)on1` yielded a melting point of 192 to 200 °C.

In the case of `CCC(=N\NC(N)=O)/C(C)=N\NC(N)=O`, the melting point lay in the range of 244 to 245 °C. The compound `CCOc1ccccc1[N+](=O)[O-]` showed a melting point of 2.2 °C. The figure for `CC1=C(C)C2=CC=C3C(O)=C(CC(C)O)C(=O)C(O)=C3C2(C)CC1=O` (configuration not stated) is 187 °C. `COc1cnc(NS(=O)(=O)c2ccc(N)cc2)nc1` gave a melting point of 215 °C. The value for `Cc1nc(C)c(C)nc1C` was 85 °C. The figure for `CCc1cc(Cc2cc(CC)c(N)c(CC)c2)cc(CC)c1N` is 88 to 91 °C. `O=C(Oc1c(F)c(F)c(F)c(F)c1F)c1ccccc1N1CCOCC1` came in with a melting point of 87 to 90 °C. The value for `N#C/C(=C\c1cccs1)c1nc(-c2cccc3ccccc23)cs1` was 205 to 207 °C; that for `c1ccc(C(c2ccccc2)c2ccccn2)cc1` was 54 to 61 °C; that for `CC=C(C)C(=O)OC1CCN2CC=C(COC(=O)C(O)(C(C)OC)C(C)(C)O)C12` (configuration not stated) was 97 °C.

Compound `O=[N+]([O-])c1cc(C(F)F)c(Nc2ncc(C(F)(F)F)cc2Cl)c([N+](=O)[O-])c1` came in with a melting point of 90 °C. In the case of `O=Cc1ccc2oc(C(=O)c3ccc(Br)cc3)cc2c1`, the melting point lay within 177 to 178 °C. The compound `CCSC(=O)N(CC)C1CCCCC1` registered a melting point of 11.5 °C. For `O=C(O)CCc1cccc(Br)c1`, the melting point lay in the range of 76 to 78 °C. Turning to `O=[N+]([O-])c1cc(O)c(Cl)cc1Cl`, the melting point amounted to 100 °C.

`C=Cc1ccc(C=C)cc1`: the melting point was 31 °C. The value for `FC(F)(F)c1cnc(Cl)c(Cl)c1` was 8 to 9 °C; that for `COc1c(Cl)cccc1Cl` was 10 to 11 °C.

(Values after a melting point compilation (Tetko et al.).)
